# Columns and labels:
# CMV [1] = assay: Intravitreal injection for a week, tolerability and antiviral effect; assay type: in vivo; conditions: 100 μg/kg every 48 hours intravitreally for a week
# From the text: Effective dosages may be administered also in sustained release dosage form.
# human CMV [2] = assay: Intravitreal human CMV infection in pigmented rabbits, intravitreal treatment; assay type: in vivo; set-up: key to retinal pathology level: 1-2+: focal hemmorhages and development of localized retinal necrosis; key to Vitritis scores: 1-2+: mild; key to vitritis: 2+: mild vitritis
# Method: Animal models for human CMV disease were prepared by inoculating human CMV by intravitreal injection into pigmented rabbits. The animals developed in 3-4 days post inoculation a mild to moderate vitritis, focal retinal microhemorrhages, and localized retinal necrosis.
# Dosages of 2'-CdG of various amounts in 100 μl of sterile water were injected into rabbit models beginning on day 3 post inoculation and repeated on day 5 and day 7N.
# Development and resolution of HCMV intraocular disease in the 80 μg therapy group was similar to disease development in the 100 μg therapy group as described below.
# Seven pigmented rabbits were infected with human CMV by intravitreal injection. Beginning on day 3 PI, these animals received 3 successive injections of 100 μg 2'CdG in 50 μl on day 3, 4, and 5 PI. […] Vitritis scores in these animals were 1-2+ (mild) and retinal pathology was reduced to 1-2+ level (focal hemmorhages and development of localized retinal necrosis). […] Initial virus recovery assays indicate that human CMV titers were reduced to 0 or 1 log by day 2 post therapy.
# human CMV [3] = assay: as above; assay type: in vivo; set-up: key to vitritis, maximum development: 1-2+: mild; conditions: 80 μl (so in the source) of 2'-CdG
# CMV [4] = assay: CMV yields in MRC5 cell monolayer cultures by plaque assay (Tables 4 and 5); assay type: cell-based; conditions: for CMV Yield: virus control 1.1 × 10^5; for CMV Yield (log10): virus control 5.1
# Method: (§1) The effectiveness of racemic 2'-CdG and of D-2'-CdG on CMV yields in MRC5 cell monolayer cultures was determined by a plaque assay with the results set forth in Tables 4 and 5:
# (§2) ^a Drug treatment began immediately following the virus adsorption
# (§3) ^a Drug treatment began immediately following the 1 1/2 hour
# CMV [5] = assay: Reduction of CPE in CMV-infected MRC5 cell monolayer cultures (Tables 4 and 5); assay type: cell-based; conditions: Human betaherpesvirus 5, MRC5, read-out: Reduction (%) of CPE by D-2'-CDG at Time of Virus Harvest
# Method: as §1, §2, §3
# CMV [6] = assay: MIC50 against CMV in MRC5 cells; assay type: cell-based
# MRC5 cells = assay: Drug cytotoxicity (gross morphology) in MRC5 cell monolayer cultures (Tables 4 and 5); assay type: cell-based, human
# Method: as §1, §2, §3
# human CMV [7] = assay: Intravitreal human CMV infection in New Zealand white rabbits, intravitreal treatment; assay type: in vivo; conditions: 100 μg in 100 μl intravitreal, 48-hour intervals from day 4
# From the text: The symptoms included vitritis, iritis, retinal pathology (micro hemorrhages and focal necrosis of the retinal
# surface), corneal stromal haze and neovascularization, and corneal endothelial pigmented precipitates. […] The intravitreal route offers some significant advantages for intraocular infections including: 1) delivery of maximal concentrations of drug to the desired site of action; 2) increased potential for sustained release (i.e. longer half-life, T1/2) of the drug; and 3) reduced potential for systemic toxicity.
# CMV [8] = assay: ED50 antiviral efficacy against CMV in human foreskin fibroblast cells; assay type: cell-based; conditions: Human betaherpesvirus 5, read-out: ED50 (median dose at which 50% antiviral efficacy against CMV is produced)
# Method: The ED50 value (median dose at which 50% antiviral efficacy against CMV is produced) was 0.06 μg/mL for D-2'-CdG and 0.20 for DHPG in human foreskin fibroblast cells.
# [9] = test system: human cytomegalovirus (strain AD 169); assay: CMV yield in MRC5 cells (Table 1); assay type: cell-based
# From the text: (§4) In each case, drug treatment began 0 hr. postinfection.
# [10] = test system: human diploid embryonic lung cells (MRC5); assay: Drug cytotoxicity (gross morphology) in MRC5 cells (Table 1); conditions: 320 μg/ml
# From the text: Also evaluated under the same conditions were prior art drugs Ara-A and ganciclovir (DHPG). In each case, drug treatment began 0 hr. postinfection.
# cytomegalovirus = conditions: in vivo; cited from earlier work
# HCMV = assay: Virus yield-reduction assay, combination with DHPG on HCMV replication in MRC5 cells (Table 2); assay type: cell-based, human CMV; conditions: (±)-2'-CDG 0
# From the text: Effect of Combination Treatment^a With (±)-2'-CDG and
# DHPG on HCMV Replication in MRC5 Cells
# (Virus Yield-Reduction Assay)
# [11] = test system: human cytomegalovirus (strain AD 169); assay: Inhibition of human cytomegalovirus in MRC5 cells by plaque reduction assay (reduction of CPE, MIC50; Table 1); assay type: cell-based; conditions: Human betaherpesvirus 5, MRC5, treatment 0 hr postinfection, read-out: Reduction (%) of CPE at Time of Harvest
# From the text: as §4
# [12] = 40 μg per 100 μl injection, intravitreal
# [13] = 100 μg in 50 μl daily, day 3, 4 and 5 PI
smiles,measurement,setting,value
Nc1nc2c(ncn2[C@@H]2C[C@H](CO)[C@@H](O)C2)c(=O)[nH]1 [2'-CdG],antiviral effectiveness,CMV [1],antivirally effective
same,tolerability,CMV [1],well tolerated
same,Retinal necrosis at sacrifice,human CMV [2]; [12],evident in all animals at sacrifice
same,retinal hemorrhages,human CMV [2]; [12],focal retinal hemorrhages
same,vitritis,human CMV [2]; [12],2+
same,controlling the development of disease,"human CMV [2]; 40 μg per 100 μl injection, intravitreal, from day 3 post inoculation",moderately effective in controlling the development of disease
same,Vitritis scores,human CMV [2]; [13],1-2+
same,human CMV-induced vitritis and retinal pathology (preliminary),human CMV [2]; [13],effective in reducing the development of human CMV-induced vitritis and retinal pathology
same,progressive disease by day 7 post inoculation,human CMV [2]; [13],had not developed the progressive disease
same,retinal pathology level,human CMV [2]; [13],1-2+
same,progressive disease,human CMV [2]; 2'CdG at two day intervals,progressive disease that is observed
same,moderate to severe retinal necrosis and detachment,human CMV [2]; lower concentration 2'CdG therapies,observed in the lower concentration 2'CdG therapies
same,development of vitritis and of retinal pathology,human CMV [3]; intravitreal,effective in reducing the development of vitritis (1-2+ maximum development) and in altering the observed development of retinal pathology
same,"vitritis, maximum development",human CMV [3]; intravitreal,1-2+
same,Retinal blood vessel engorgement and focal microhemorrhages,"human CMV [3]; days 3, 4 and 5 post inoculation",Retinal blood vessel engorgement was evident and focal microhemorrhages were present
Nc1nc2c(ncn2[C@@H]2C[C@H](CO)[C@@H](O)C2)c(=O)[nH]1 [D-2'-CdG],CMV Yield,"CMV [4]; Table 5, 0.1 μM",3.8 × 10^4 PFU/mL
same,CMV Yield (log10),"CMV [4]; Table 5, 0.1 μM",4.6 log10 PFU/mL
same,CMV Yield,"CMV [4]; Table 5, 0.32 μM",1.4 × 10^4 PFU/mL
same,CMV Yield (log10),"CMV [4]; Table 5, 0.32 μM",4.1 log10 PFU/mL
same,CMV Yield,"CMV [4]; Table 5, 1.0 μM",5.4 × 10^3 PFU/mL
same,CMV Yield (log10),"CMV [4]; Table 5, 1.0 μM",3.7 log10 PFU/mL
same,CMV Yield,"CMV [4]; Table 5, 3.2 μM",8.4 × 10^2 PFU/mL
same,CMV Yield (log10),"CMV [4]; Table 5, 3.2 μM",2.9 log10 PFU/mL
same,CMV Yield,"CMV [4]; Table 5, 10 μM",2 × 10^1 PFU/mL
same,CMV Yield (log10),"CMV [4]; Table 5, 10 μM",1.3 log10 PFU/mL
same,CMV Yield,"CMV [4]; Table 5, 32 μM",0 PFU/mL
same,CMV Yield,"CMV [4]; Table 5, 100 μM",0 PFU/mL
same,inhibition at 0.1 µM,"CMV [5]; Table 5, 0.1 μM",0%
same,inhibition at 0.32 µM,"CMV [5]; Table 5, 0.32 μM",0%
same,inhibition at 1 µM,"CMV [5]; Table 5, 1.0 μM",10%
same,inhibition at 3.2 µM,"CMV [5]; Table 5, 3.2 μM",10%
same,inhibition at 10 µM,"CMV [5]; Table 5, 10 μM",25%
same,inhibition at 32 µM,"CMV [5]; Table 5, 32 μM",50%
same,inhibition at 100 µM,"CMV [5]; Table 5, 100 μM",50%
same,IC50,CMV [6]; Human betaherpesvirus 5,< 0.029 µg/mL
same,MIC50 relative to the MIC50 of DL-2'-CdG,CMV [6]; same conditions,about half (or less)
same,Drug Cytotoxicity (gross morphology),"MRC5 cells; Table 5, 0.1 μM",0
same,Drug Cytotoxicity (gross morphology),"MRC5 cells; Table 5, 0.32 μM",0
same,Drug Cytotoxicity (gross morphology),"MRC5 cells; Table 5, 1.0 μM",0
same,Drug Cytotoxicity (gross morphology),"MRC5 cells; Table 5, 3.2 μM",0
same,Drug Cytotoxicity (gross morphology),"MRC5 cells; Table 5, 10 μM",0
same,Drug Cytotoxicity (gross morphology),"MRC5 cells; Table 5, 32 μM",v. sl. toxicity
same,Drug Cytotoxicity (gross morphology),"MRC5 cells; Table 5, 100 μM",slight toxicity
same,Drug Cytotoxicity (gross morphology),"MRC5 cells; Table 5, 320 μM",toxic
same,clinical outcome compared with ganciclovir (DHPG),human CMV [7],clinically better than treatment with ganciclovir (DHPG)
same,"development of retinal pathology, severity of vitritis and iritis vs placebo",human CMV [7],effective in reducing the development of retinal pathology and in reducing the severity of the vitritis and iritis
same,EC50,CMV [8],0.06 µg/mL
"Nc1nc(O)c2ncn(COC(CO)CO)c2n1 [DHPG, dihydroxy propoxymethyl guanine, reference compound]",CMV Yield,"[9]; 0.1 μg/ml, virus control 5.5 (DHPG 5.3)",4.7 log10 CCID50 /ml
same,CMV Yield,"[9]; 0.32 μg/ml, virus control 5.5 (DHPG 5.3)",4.6 log10 CCID50 /ml
same,CMV Yield,"[9]; 1.0 μg/ml, virus control 5.5 (DHPG 5.3)",3.6 log10 CCID50 /ml
same,CMV Yield,"[9]; 3.2 μg/ml, virus control 5.5 (DHPG 5.3)",2.3 log10 CCID50 /ml
same,CMV Yield,"[9]; 10 μg/ml, virus control 5.5 (DHPG 5.3)",1.0 log10 CCID50 /ml
same,CMV Yield,"[9]; 32 μg/ml, virus control 5.5 (DHPG 5.3)",0 log10 CCID50 /ml
same,CMV Yield,"[9]; 100 μg/ml, virus control 5.5 (DHPG 5.3)",0 log10 CCID50 /ml
same,CMV Yield,"[9]; 320 μg/ml, virus control 5.3",0 log10 CCID50 /ml
same,Drug Cytotoxicity (gross morphology),[10],sl. toxicity
same,toxicity,cytomegalovirus,dose-limiting toxicity
same,Reduction in CMV Yield,HCMV; DHPG 1.0 μM,0.5 Log10 PFU/ML
same,Reduction in CMV Yield,HCMV; DHPG 3.2 μM,1.3 Log10 PFU/ML
same,Reduction in CMV Yield,HCMV; DHPG 10.0 μM,1.8 Log10 PFU/ML
same,EC50,CMV [8],0.2 µg/mL
same,inhibition at 0.1 µg/mL,[11]; 0.1 μg/ml,0%
same,inhibition at 0.32 µg/mL,[11]; 0.32 μg/ml,5%
same,inhibition at 1 µg/mL,[11]; 1.0 μg/ml,30%
same,inhibition at 3.2 µg/mL,[11]; 3.2 μg/ml,60%
same,inhibition at 10 µg/mL,[11]; 10 μg/ml,95%
same,inhibition at 32 µg/mL,[11]; 32 μg/ml,100%
same,inhibition at 100 µg/mL,[11]; 100 μg/ml,100%
same,inhibition at 320 µg/mL,[11]; 320 μg/ml,100%
